# Laboratory results as given in patent US7416722B2, “Concentrated, aqueous solutions of p-methoxybenzoic acid for use in cosmetic and dermatologic formulations” (Dr. Straetmans GmbH, priority 2005, dated 2008).
# Assay: solubility of p-methoxybenzoic acid in water
# Type: physicochemical
# Text: p-Methoxybenzoic acid can be obtained under the trade name of DERMOSOFT® 688 from Dr. Straetmans GmbH in a cosmetical grade. The solubility of p-methoxybenzoic acid in water is approximately […]. For use in a cosmetic formulation the product is usually brought into solution with sodium hydroxide or potassium hydroxide in a small amount of water at warm temperatures and worked into an aqueous phase. To evolve the spectrum of effects of p-methoxybenzoic acid completely, afterwards the formula should be re-acidified to a pH-value of 5.5. […] This may show, that the initial homogenous solutions are merely meta-stable systems.
compound,measurement,value
COc1ccc(C(=O)O)cc1 [p-methoxybenzoic acid],solubility,~5000 µg/mL
